Assays:
[1] = Stability in simulated gastric and intestinal fluid; format: in vitro ADME
L6 myotubes = assay: 2-3H-deoxyglucose uptake by skeletal muscle cells; format: cell-based, rat; conditions: for 2-deoxyglucose uptake, fold vs. control: 16 h
Description: The fold increase in 2-deoxy-glucose uptake in the presence of test compound by rat skeletal muscle cells (L-6 myotubes) was considered as % antihyperglycemic activity of the test compound which was carried out as follows. L6 myotubes were incubated with increasing concentrations of 14b and the standard drug rosiglitazone (10 μM) for 16 h. After incubation glucose uptake was assessed for 5 min in HEPES-buffered saline [140 mM NaCl, 20 mM HEPES, 5 mM KCl, 2.5 mM MgSO4, 1 mM CaCl2 (pH 7.4)] containing 10 μM 2-deoxyglucose (0.5 μCi/ml 2-[^3H]-deoxyglucose) at room temperature. Subsequently cells were rinsed with an ice-cold solution containing 0.9% NaCl and 20 mM D-glucose. To quantify the radioactivity incorporated, cells were lysed with 0.05 N NaOH and lysates were counted with scintillation fluid in a β-counter. Nonspecific uptake was determined in the presence of cytochalasin B (50 μM) during the assay, and these values were subtracted from all other values. Glucose uptake was measured in triplicate and normalized to total protein, was expressed as fold increase with respect to control cells.

db/+ mice = assay: OGTT in glucose loaded db/+ mice; format: in vivo
Description: Male C57BL6-db/+ mice (12-18 week old, 18-20 g body weight) were procured from National Animal Laboratory Centre (NALC) of Central Drug Research Institute (CDRI), Lucknow, India Animals were housed in polypropylene cages, in controlled environment (temperature 25±2° C.; humidity 50-60%; light 300 lux at floor level with regular 12 h light-12 h dark cycle; noise level 50 decibel; ventilation 10-15 air changes per hour). They were provided with a standard laboratory diet (Dayal Industry, Barabanki, Lucknow) unless stated otherwise and has free access to water. The mice having fasting blood glucose values varying between 65-80 mg/dl were finally included in this study. Animals were divided into groups consisting of six animals in each. Group one was considered as control group, where as the other groups were termed as experimental groups. Rats of experimental groups were given the desired doses of the test samples i.e. 5, 10, 20, 30 and 50 mg/kg body weight. The test samples were always prepared in the vehicle 1% gum acacia. An oral glucose load of 3.0 g/kg was given to the animals of all the groups 30 min post administration of the test samples/vehicle. Blood glucose levels of the animals of all the groups were again measured at 30, 60, 90 and 120 min post glucose load. Food (not water) was removed from the cages during the experimental period. […] Comparing the AUC of test sample treated to that of control group determined the percent improvement in OGTT by test sample which is termed as anti-hyperglycaemic activity. Statistical comparison between the groups was done by employing Students t test.

[2] = tested on: sucrose challenged low dosed STZ-induced diabetic rats; assay: Sucrose challenged low dosed streptozotocin-induced diabetic rats (STZ-S); format: in vivo, rat
Description: Fasting blood glucose level of each animal was measured after 48 hours post STZ injection by Glucostrips (Roche) using Glucometer (ACCU-CHEK II; Roche Diagnostics, USA) and animals showing blood glucose level above 280 mg/dl were considered as diabetic. The diabetic rats with fasting blood glucose values varying between […] were included in this study. Animals were divided into groups consisting of five animals in each. Group one was considered as a control group, where as the other groups were termed as experimental groups. […] The test samples and standard drug (Metformin) was always prepared in the vehicle 1% gum acacia. […] Food (not water) was removed from the cages during the experimental period. […] The percent decline in AUC of the experiment group compared to sham treated control group termed as % antihyperglycaemic activity. Statistical analysis between the groups was done by employing Students t test.

[3] = Stability studies in rat plasma samples; format: in vitro ADME; conditions: freeze-thaw cycle, bench top, dry residue and long term conditions
Text: The plasma of the rat treated with compound 14b was then processed for the stability study. The compound is found to be stable during freeze-thaw cycle, on the bench top, dry residue and long term conditions after extraction from plasma.

[4] = tested on: STZ-induced diabetic rats; assay: Streptozotocin-induced diabetic rat model (STZ); format: in vivo; conditions: 100 mg/kg
Description: Male albino rats (Sprague Dawley Strain) of body weight 160±20 g were procured from the colony of CDRI Animal House. 4 to 5 animals were kept in one polypropylene cage and acclimatized for one week in the new environment. The animals were made diabetic by injecting streptozotocin (STZ) intraperitoneally to the overnight starved animals at a dose of 60 mg/kg prepared in 100 mM citrate buffer (pH 4.5). Fasting blood glucose level of each animal was measured after 48 hours post STZ injection by Glucostrips (Roche) using Glucometer (ACCU-CHEK II; Roche Diagnostics, USA) and animals showing blood glucose level above 280 mg/dl were considered as diabetic. The diabetic rats with fasting blood glucose values varying between 280-450 mg/dl were included in this study. Animals were divided into groups consisting of five animals in each. Group one was considered as a control group, where as the other groups were termed as experimental groups. Rats of experimental group were usually given 100 mg/kg body weight of the test samples unless stated otherwise and standard drug i.e. metformin, respectively. The test samples and standard drug i.e. metformin was always prepared in the vehicle 1% gum acacia. 30 min post administration of the test samples/vehicle/standard drug, blood glucose levels of the animals of all the groups were measured at 30, 60, 90, 120, 180, 240, 300 and 1440 min. Food (not water) was removed from the cages during the experimental period. A plot was drawn between time and blood glucose levels on x and y axis, respectively and the area under curve (AUC) between 0 to 300 min were calculated of each group. The percent decline in AUC of the experiment group compared to sham treated control group termed as % antihyperglycaemic activity. Statistical comparison between the groups was done by employing Student's ‘t’ test.

## C/C(=N\OCCN1CCCCC1)[C@H]1CC[C@H]2[C@@H]3CC=C4C[C@@H](O)CC[C@]4(C)[C@H]3CC[C@]12C [Compound 14b, 3β-Hydroxy-pregna-5-en-20-one-O-(2-piperidin-1-yl-ethyl)-oxime]
[1]; SGF
  stability in simulated gastric fluid (SGF): low stability
[1]; SIF
  stability in simulated intestinal fluid (SIF): good stability
L6 myotubes; 1.0 μM
  2-deoxyglucose uptake, fold vs. control: 1.59±0.28 fold
L6 myotubes; 2.5 μM
  2-deoxyglucose uptake, fold vs. control: 2.61±0.45 fold
L6 myotubes; 5.0 μM
  2-deoxyglucose uptake, fold vs. control: 2.88±0.74 fold
L6 myotubes; 10 μM
  2-deoxyglucose uptake, fold vs. control: 3.37±0.12 fold
L6 myotubes; cytochalasin-B 50 μM added to transport solution
  glucose uptake in presence of cytochalasin-B: completely blocked
L6 myotubes; p<0.05
  minimum concentration increasing glucose uptake to a significant level: 1.0 µM
other
  melting point: 130 to 135 °C
db/+ mice; 5 mg/kg
  % Antihyperglycaemic activity (OGTT improvement): 10.5%
db/+ mice; 10 mg/kg
  % Antihyperglycaemic activity (OGTT improvement): 19.8%
db/+ mice; 20 mg/kg
  % Antihyperglycaemic activity (OGTT improvement): 24.5%
db/+ mice; 30 mg/kg
  % Antihyperglycaemic activity (OGTT improvement): 28.9%
db/+ mice; 50 mg/kg
  % Antihyperglycaemic activity (OGTT improvement): 35.9%
[2]; 100 mg/kg
  Blood glucose level, 0 min post sucrose load: 222.0 ± 7.9 mg/dL
  Blood glucose level, 30 min post sucrose load: 452.6 ± 18.2 mg/dL
  Blood glucose level, 60 min post sucrose load: 524.8 ± 11.2 mg/dL
  Blood glucose level, 90 min post sucrose load: 468.2 ± 12.6 mg/dL
  Blood glucose level, 120 min post sucrose load: 412.6 ± 5.8 mg/dL
  Blood glucose level, 180 min post sucrose load: 345.2 ± 9.2 mg/dL
  Blood glucose level, 240 min post sucrose load: 311.6 ± 3.7 mg/dL
  Blood glucose level, 300 min post sucrose load: 264.8 ± 8.7 mg/dL
  Blood glucose level, 1440 min post sucrose load: 414.8 ± 8.3 mg/dL
[2]; Table 2
  % Antihyperglycemic activity STZ-S 0-5 hr: 28.9%
  % Antihyperglycemic activity STZ-S 0-24 hr: 25.2%
[3]
  stability after extraction from plasma: stable
[4]
  Blood glucose level, 0 min post sucrose load: 357.4 ± 17.9 mg/dL
  Blood glucose level, 30 min post sucrose load: 353.8 ± 6.3 mg/dL
  Blood glucose level, 60 min post sucrose load: 387.0 ± 20.8 mg/dL
  Blood glucose level, 90 min post sucrose load: 374.4 ± 23.1 mg/dL
  Blood glucose level, 120 min post sucrose load: 375.0 ± 20.2 mg/dL
  Blood glucose level, 180 min post sucrose load: 366.6 ± 16.7 mg/dL
  Blood glucose level, 240 min post sucrose load: 333.0 ± 11.7 mg/dL
  Blood glucose level, 300 min post sucrose load: 301.4 ± 12.1 mg/dL
  Blood glucose level, 1440 min post sucrose load: 408.0 ± 17.1 mg/dL
